US20220372013A2, “PIPERIDINE-2,6-DIONE DERIVATIVES AND CROHN'S DISEASE TREATING” (Tianjin Hemay Pharmaceutical Sci-Tech Co., Ltd, priority 2016, published 2022)

Tested on: DNBS-Induced Inflammatory Bowel Disease Models in Rats
Assay: Biological Example 1: DNBS-induced inflammatory bowel disease models in rats
Format: in vivo, Wistar rats
Details: for Adhesion Degree / Colon MPO Activity / Colon Weight / Colon weight to length ratio / Ulcer Area: sixth day, Mean ± SD
Procedure: Wistar rats, male, body weight of 100-120 g.
90 male Wistar rats were fasted for 40 hours. A 5% glucose injection was administered subcutaneously during fasting. 60 rats with normal conditions and moderate body weight were selected from the fasting rats. The animals were randomly divided into 6 groups according to the body weight: normal control group, model control group, sulfasalazine group (300 mg/Kg), and the compound in Example 27 groups consisting of 5, 15 and 30 mg/Kg dose groups. There were 10 rats in each group. The animals were anesthetized with ether. A specially made gavage device (made by a rat gavage device having the diameter of 2 mm, which was nested on a mouse gavage device having the diameter of 1 mm) was slowly inserted into the enteric cavity at 8 cm from the anus. The model control group, the sulfasalazine group and the compound in Example 27 groups were administered with 0.5 mL of 50 mg/mL DNBS in 30% ethanol solution. The normal control group was administered with 0.5 mL of 30% ethanol solution. The animals were inverted in anesthesia for 15 minutes after the gavage device was removed. The day when the model was prepared was the first day of the experiment. After 4 hours of DNBS induction, the corresponding drug or the corresponding volume of 1% CMC-Na was administered once per day. The body weights were recorded and the stool characteristics were scored. On the sixth day of the experiment colon tissues were taken from the animals to observe the results of each index.
The compound in Example 27 and sulfasalazine: Preparation Method: Suspended with 1% CMC-Na, and prepared when it was needed.
Animals were euthanized on the sixth day of the experiment to observe the results of each index. After the animals were sacrificed, colons were obtained. The adhesion degree of colon was observed and the length of the colon was measured. The ulcer area was calculated after removing the contents in the colon and the weight of the colon tissue was weighed. The colon tissue was longitudinally divided into two parts. One part of the colon tissue was fixed in 10% formalin solution for later use. The other part of the colon tissue was put into the liquid nitrogen to quickly frozen, and then was reserved at −80° C. for the detection of MPO.
Calculation method for ulcer area: length of ulcer point (cm)×width of ulcer point (cm).
The frozen tissue was ground into powder in liquid nitrogen. An appropriate amount of the powder was weighed and was added into 50 mM potassium phosphate solution (containing 0.5% cetyltrimethylammonium bromide) to give a 25 mg/mL solution. The resultant solution was homogenized by an electric homogenizer. 1 mL of suspension was centrifuged to give a supernatant. 7 μL of the supernatant was added into a 96-well plate and 200 μL of o-dianisidine mixture (containing 0.167 mg/mL o-dianisidine and 0.0006% H2O2 potassium phosphate buffer). OD values of the resultant solution at 0, 30, 60, and 90 s were detected at 450 nm of the microplate reader.
Test for homogeneity of variance was performed with Spss13.0. Where variance of data was homogeneous (P>0.05), one-way ANOVA LSD test was performed. Where the analysis of variance was significant (P<0.05), then Dunnett's multiple comparison (parameter method) or Kruskal-Wallis non-parametric test was performed. Where the results of Kruskal-Wallis non-parametric test were significant (P<0.05), the Mann-Whitney U test was performed for pairwise comparison.

COCCN1C(=O)CCC(N2C(=O)c3cccc(N)c3C2=O)C1=O (centres unmarked) [Example 27, 4-amino-2-(1-(2-methoxyethyl)-2,6-dioxopiperidin-3-yl)isoindolin-1,3-dione]
Adhesion Degree (5 mg/Kg i.g. qd × 6): 0.4 ± 0.7 Point
Colon MPO Activity (5 mg/Kg i.g. qd × 6): 20.3 ± 19.8 U/mg
Colon Weight (5 mg/Kg i.g. qd × 6): 1775.7 ± 321.0 mg
Colon weight to length ratio (5 mg/Kg i.g. qd × 6): 144.2 ± 30.5 mg/cm
Ulcer Area (5 mg/Kg i.g. qd × 6): 0.8 ± 0.9 cm^2
therapeutic effect (in words) (5 mg/Kg, 15 mg/Kg and 30 mg/Kg): a certain dose effect and a good therapeutic effect without the weight loss of animals
Adhesion Degree (15 mg/Kg i.g. qd × 6): 0.1 ± 0.3 Point
Colon MPO Activity (15 mg/Kg i.g. qd × 6): 16.7 ± 9.8 U/mg
Colon Weight (15 mg/Kg i.g. qd × 6): 1668.7 ± 245.3 mg
Colon weight to length ratio (15 mg/Kg i.g. qd × 6): 127.1 ± 13.7 mg/cm
Ulcer Area (15 mg/Kg i.g. qd × 6): 0.7 ± 0.9 cm^2
Adhesion Degree (30 mg/Kg i.g. qd × 6): 0.1 ± 0.3 Point
Colon MPO Activity (30 mg/Kg i.g. qd × 6): 15.1 ± 13.0 U/mg
Colon Weight (30 mg/Kg i.g. qd × 6): 1534.7 ± 156.2 mg
Colon weight to length ratio (30 mg/Kg i.g. qd × 6): 117.7 ± 19.4 mg/cm
Ulcer Area (30 mg/Kg i.g. qd × 6): 0.3 ± 0.5 cm^2
reduction of the ulcer area (30 mg/Kg, vs model control group): about 80%
